Assay results as given in US11066369B2, “N-(pyridin-2-yl)pyridine-sulfonamide derivatives and their use in the treatment of disease” (Novartis AG, priority 2016, dated 2021).
Structures can show the parent of a compound that is named as a salt.

Columns and labels:
delF508-CFTR = biological target: T1, delF508-CFTR (Homo sapiens, UniProt P13569, DEL508-508); test: Measurement of delF508-CFTR functional activity in primary human bronchial epithelial cells (HBECs) using Multi-Transepithelial Clamp Circuit (MTECC-24) assay; type: cell-based; conditions: primary CF HBECs; for MTECC24 CFHBEC- Amax %: test compound added 24h before assay plus potentiator, relative to reference combination (2 μM corrector + 0.5 μM potentiator); for EC50: test compound added 24h before assay, in the presence of potentiator, mean of at least two replicates, read-out: MTECC24 CFHBEC- EC50
T1 construct: functional activity of the CFTR channel (Chloride ion transport) in patient derived primary human bronchial epithelial cells; host or cells: patient-derived primary human bronchial epithelial cells (delF508-CFTR)
T1 sequence (P13569 with tags, fused parts or gaps DEL508-508): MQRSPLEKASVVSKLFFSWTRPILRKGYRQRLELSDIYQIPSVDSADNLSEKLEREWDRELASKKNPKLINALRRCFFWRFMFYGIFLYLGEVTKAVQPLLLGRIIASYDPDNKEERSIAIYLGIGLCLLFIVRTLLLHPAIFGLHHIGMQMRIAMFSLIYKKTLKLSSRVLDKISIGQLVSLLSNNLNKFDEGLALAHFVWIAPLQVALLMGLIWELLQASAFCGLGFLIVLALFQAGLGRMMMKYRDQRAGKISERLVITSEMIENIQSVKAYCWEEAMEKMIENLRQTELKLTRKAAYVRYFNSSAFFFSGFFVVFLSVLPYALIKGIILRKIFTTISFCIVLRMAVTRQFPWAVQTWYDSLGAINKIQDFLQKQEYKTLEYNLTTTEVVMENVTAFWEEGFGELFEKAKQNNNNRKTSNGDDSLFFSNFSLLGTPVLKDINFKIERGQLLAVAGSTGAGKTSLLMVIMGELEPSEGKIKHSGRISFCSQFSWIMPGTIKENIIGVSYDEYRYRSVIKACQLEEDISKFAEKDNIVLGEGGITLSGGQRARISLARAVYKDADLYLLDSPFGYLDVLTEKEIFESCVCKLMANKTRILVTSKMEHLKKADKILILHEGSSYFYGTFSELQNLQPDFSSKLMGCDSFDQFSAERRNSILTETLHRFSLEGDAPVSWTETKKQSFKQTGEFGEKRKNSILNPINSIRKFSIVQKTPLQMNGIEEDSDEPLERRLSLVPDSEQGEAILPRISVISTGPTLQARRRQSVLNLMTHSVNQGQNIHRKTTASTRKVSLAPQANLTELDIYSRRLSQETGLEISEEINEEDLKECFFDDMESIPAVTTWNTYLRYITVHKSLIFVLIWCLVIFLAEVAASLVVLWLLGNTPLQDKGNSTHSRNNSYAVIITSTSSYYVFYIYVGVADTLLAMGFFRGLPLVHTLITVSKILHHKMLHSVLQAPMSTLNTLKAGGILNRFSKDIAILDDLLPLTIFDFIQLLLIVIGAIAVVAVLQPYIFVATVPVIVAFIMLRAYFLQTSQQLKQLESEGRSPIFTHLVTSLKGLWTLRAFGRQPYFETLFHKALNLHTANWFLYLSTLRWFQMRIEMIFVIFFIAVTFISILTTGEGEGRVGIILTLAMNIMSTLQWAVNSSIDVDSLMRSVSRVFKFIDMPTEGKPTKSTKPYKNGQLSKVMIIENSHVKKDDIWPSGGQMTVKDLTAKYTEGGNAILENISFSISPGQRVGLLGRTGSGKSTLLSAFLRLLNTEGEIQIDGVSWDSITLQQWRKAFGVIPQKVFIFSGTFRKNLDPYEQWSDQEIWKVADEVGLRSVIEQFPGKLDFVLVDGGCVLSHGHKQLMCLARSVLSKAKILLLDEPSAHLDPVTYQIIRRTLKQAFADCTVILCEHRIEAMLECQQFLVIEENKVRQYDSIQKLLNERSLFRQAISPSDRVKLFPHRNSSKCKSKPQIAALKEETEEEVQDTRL
Outline: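 Patient-derived primary delF508-CFTR HBECs, differentiated at air-liquid interface ~2 weeks, treated basolaterally with compound for 24 h, then apical and basolateral compound in HEPES pH 7.4 assay medium. Equivalent short-circuit current (Ieq) recorded on MTECC-24 with sequential amiloride, forskolin, potentiator and INH-172; normalized to 0.1% DMSO, EC50 from curve fit.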

[1] = biological target: T2, horseradish peroxidase (HRP) tagged delF508-CFTR (Homo sapiens, UniProt P13569, DEL508-508); test: Measurement of delF508-CFTR-HRP surface expression in CFBE41o- cells; type: cell-based; conditions: delF508-CFTR-HRP surface expression, CFBE41o- cells; for Emax: read-out: DelF508-CFTR-HRP Amax %; for EC50: read-out: DelF508-CFTR-HRP EC50;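 as to DelF508-CFTR-HRP Amax %: percent efficacy relative to reference corrector lumacaftor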
T2 construct: expressed in transfected cells
T2 sequence (P13569 with tags, fused parts or gaps DEL508-508): as above
Outline: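 CFBE41o- bronchial epithelial cells stably expressing delF508-CFTR with HRP in the fourth extracellular loop; expression induced 48h with 500 ng/mL doxycycline, then compounds added (top 10 μM, 10-point 3-fold series, ≤0.5% DMSO) for 24h at 37° C. Surface HRP measured by luminescence with cell-impermeant substrate; EC50 from logistic fit of triplicates, plate-normalized to lowest concentration; efficacy also relative to a reference corrector.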

Row | Structure (SMILES) | MTECC24 CFHBEC- Amax % (delF508-CFTR) [%] | EC50 (delF508-CFTR) [nM] | Emax [1] [%] | EC50 [1] [nM]
1 | Cc1cccc(C)c1-c1nc(NS(=O)(=O)c2cccc(N3CCNCC3)n2)ccc1Cl [Example 163, N-(5-chloro-6-(2,6-dimethylphenyl)pyridin-2-yl)-6-(piperazin-1-yl)pyridine-2-sulfonamide Hydrochloride] | 64.8 | 59 | 305 | 3140
2 | Cc1c(F)cccc1-c1nc(NS(=O)(=O)c2cccc(N3CCC(C)(C(=O)O)CC3)n2)ccc1Cl [Example 253, 1-(6-(N-(5-chloro-6-(3-fluoro-2-methylphenyl)pyridin-2-yl)sulfamoyl)pyridin-2-yl)-4-methylpiperidine-4-carboxylic Acid] | 67.1 | 27.8 | 203 | 2290
3 | Cc1ccc(F)cc1-c1nc(NS(=O)(=O)c2ccnc(N3CC(C)(O)C3)c2)ccc1C(F)(F)F [Example 320, N-(6-(5-fluoro-2-methylphenyl)-5-(trifluoromethyl)pyridin-2-yl)-2-(3-hydroxy-3-methylazetidin-1-yl)pyridine-4-sulfonamide] | 74.2 | 126 | 545 | 2220
4 | CC1(C(=O)O)CCN(c2cccc(S(=O)(=O)Nc3ccc(C(F)(F)F)c(-c4ccccc4N4CCOCC4)n3)n2)CC1 [Example 343, 4-methyl-1-(6-(N-(6-(2-morpholinophenyl)-5-(trifluoromethyl)pyridin-2-yl)sulfamoyl)pyridin-2-yl)piperidine-4-carboxylic Acid] | 65.3 | 86.1 | 197 | 2150
5 | Cc1ccc(C(F)(F)F)cc1-c1nc(NS(=O)(=O)c2cccc(N3CC(C)(O)C3)n2)ccc1Cl [Example 212, N-(5-chloro-6-(2-methyl-5-(trifluoromethyl)phenyl)pyridin-2-yl)-6-(3-hydroxy-3-methylazetidin-1-yl)pyridine-2-sulfonamide] | 68.0 | 82 | 378 | 1820
6 | Cc1ccccc1-c1nc(NS(=O)(=O)c2cccc(N3CCN(CC(N)=O)CC3)n2)ccc1C(F)(F)F [Example 183, 2-(4-(6-(N-(6-(o-tolyl)-5-(trifluoromethyl)pyridin-2-yl)sulfamoyl)pyridin-2-yl)piperazin-1-yl)acetamide] | 67.8 | 74.9 | 191 | 896
7 | Cc1ccccc1-c1nc(NS(=O)(=O)c2cccc(N[C@@H]3CCNC[C@@H]3F)n2)ccc1C(F)(F)F (relative stereo) [Example 117, 6-(((3S,4R)-3-fluoropiperidin-4-yl)amino)-N-(6-(o-tolyl)-5-(trifluoromethyl)pyridin-2-yl)pyridine-2-sulfonamide Hydrochloride] | 74.7 | 33.1 | 264 | 2780
8 | Cc1ccc(C#N)cc1-c1nc(NS(=O)(=O)c2cccc(N3CCNCC3)n2)ccc1Cl [Example 312, N-(5-chloro-6-(5-cyano-2-methylphenyl)pyridin-2-yl)-6-(piperazin-1-yl)pyridine-2-sulfonamide] | 49.8 | 458 | 167 | 3970
9 | Cc1ccc(F)cc1-c1nc(NS(=O)(=O)c2ccnc(N3CCOC[C@H]3C)c2)ccc1Cl [Example 318, (R)—N-(5-chloro-6-(5-fluoro-2-methylphenyl)pyridin-2-yl)-2-(3-methylmorpholino)pyridine-4-sulfonamide] | 48.7 | 77.6 | 318 | 3170
10 | Cc1c(F)cccc1-c1nc(NS(=O)(=O)c2ccnc(N3CC(O)C3)c2)ccc1Cl [Example 323, N-(5-chloro-6-(3-fluoro-2-methylphenyl)pyridin-2-yl)-2-(3-hydroxyazetidin-1-yl)pyridine-4-sulfonamide] | 67.7 | 147 | 252 | 2770

The next compounds have a lower EC50 (delF508-CFTR) than those just listed; values first:

Row | MTECC24 CFHBEC- Amax % (delF508-CFTR) [%] | EC50 (delF508-CFTR) [nM] | Emax [1] [%] | EC50 [1] [nM] | Structure (SMILES)
11 | 60.1 | 15.4 | 257 | 2400 | O=S(=O)(Nc1ccc(C(F)(F)F)c(-c2ccccc2C(F)(F)F)n1)c1ccnc(N2CC(O)C2)c1 [Example 325, 2-(3-hydroxyazetidin-1-yl)-N-(5-(trifluoromethyl)-6-(2-(trifluoromethyl)phenyl)pyridin-2-yl)pyridine-4-sulfonamide]
12 | 59.9 | 14.4 | 427 | 1920 | Cc1ccc(C(F)(F)F)cc1-c1nc(NS(=O)(=O)c2cccc(N3CC(O)C3)n2)ccc1Cl [Example 223, N-(5-chloro-6-(2-methyl-5-(trifluoromethyl)phenyl)pyridin-2-yl)-6-(3-hydroxyazetidin-1-yl)pyridine-2-sulfonamide]
13 | 94.3 | 13.6 | 579 | 1350 | Cc1cccc(C)c1-c1nc(NS(=O)(=O)c2cccc(N)n2)ccc1Cl [Example 11, 6-amino-N-(5-chloro-6-(2,6-dimethylphenyl)pyridin-2-yl)pyridine-2-sulfonamide]
14 | 48.9 | 12.4 | 510 | 2890 | COc1ccc(Cl)c(-c2nc(NS(=O)(=O)c3cccc(N4CCC(C)(C(=O)O)CC4)n3)ccc2C(F)(F)F)c1 [Example 241, 1-(6-(N-(6-(2-chloro-5-methoxyphenyl)-5-(trifluoromethyl)pyridin-2-yl)sulfamoyl)pyridin-2-yl)-4-methylpiperidine-4-carboxylic Acid]
15 | 44.5 | 9.4 | 627 | 1500 | CC(=O)N1CCN(c2cccc(S(=O)(=O)Nc3ccc(C(F)(F)F)c(-c4cc(F)ccc4C)n3)n2)CC1 [Example 180, 6-(4-acetylpiperazin-1-yl)-N-(6-(5-fluoro-2-methylphenyl)-5-(trifluoromethyl)pyridin-2-yl)pyridine-2-sulfonamide]
16 | 75.5 | 8 | 724 | 967 | Cc1cccc(C)c1-c1nc(NS(=O)(=O)c2cccc(N)n2)ccc1C(F)(F)F [Example 2, 6-amino-N-(6-(2,6-dimethylphenyl)-5-(trifluoromethyl)pyridin-2-yl)pyridine-2-sulfonamide]
17 | 74.8 | 7.1 | 384 | 1410 | Cc1cccc(C)c1-c1nc(NS(=O)(=O)c2cccc(N[C@H]3C[C@H](O)C3)n2)ccc1Cl [Example 287, N-[5-chloro-6-(2,6-dimethylphenyl)pyridin-2-yl]-6-{[(1r,3r)-3-hydroxycyclobutyl]amino}pyridine-2-sulfonamide]
18 | 73.4 | 5.4 |  | 1100 | Cc1ccc(F)cc1-c1nc(NS(=O)(=O)c2cccc(N[C@@H]3COCC[C@H]3O)n2)ccc1Cl [Example 278, N-[5-chloro-6-(5-fluoro-2-methylphenyl)pyridin-2-yl]-6-{[(3R,4R)-4-hydroxyoxan-3-yl]amino}pyridine-2-sulfonamide]
19 | 66.4 | 4.7 | 303 | 2100 | Cc1c(F)cccc1-c1nc(NS(=O)(=O)c2cccc(N3CC(C)(O)C3)n2)ccc1C(F)(F)F [Example 215, N-(6-(3-fluoro-2-methylphenyl)-5-(trifluoromethyl)pyridin-2-yl)-6-(3-hydroxy-3-methylazetidin-1-yl)pyridine-2-sulfonamide]
20 | 78.9 | 4 | 867 | 1780 | Cc1ccc(F)cc1-c1nc(NS(=O)(=O)c2cccc(N)n2)ccc1C(F)(F)F [Example 1, 6-amino-N-(6-(5-fluoro-2-methylphenyl)-5-(trifluoromethyl)pyridin-2-yl)pyridine-2-sulfonamide]
21 | 80.5 | 2 |  | 1880 | Cc1c(F)cccc1-c1nc(NS(=O)(=O)c2cccc(N3CCN(C4CC4)CC3)n2)ccc1C(F)(F)F [Example 144, 6-(4-cyclopropylpiperazin-1-yl)-N-(6-(3-fluoro-2-methylphenyl)-5-(trifluoromethyl)pyridin-2-yl)pyridine-2-sulfonamide]
22 | 82.2 | 0.808 | 714 | 699 | CCCC1(C(=O)O)CCCN(c2cccc(S(=O)(=O)Nc3ccc(C(F)(F)F)c(-c4ccccc4CC)n3)n2)C1 (centres unmarked) [Example 352, 1-(6-{[6-(2-ethylphenyl)-5-(trifluoromethyl)pyridin-2-yl]sulfamoyl}pyridin-2-yl)-3-propylpiperidine-3-carboxylic Acid]
23 | 63.5 | 0.682 |  | 1210 | CC(C)c1ccccc1-c1nc(NS(=O)(=O)c2cccc(N3CCC[C@@H](C(=O)O)C3)n2)ccc1C(F)(F)F [Example 375, (R)-1-(6-(N-(6-(2-isopropylphenyl)-5-(trifluoromethyl)pyridin-2-yl)sulfamoyl)pyridin-2-yl)piperidine-3-carboxylic Acid]
